Measurements as given in US4206221A, “Cephalomannine and its use in treating leukemic tumors” (priority 1979, dated 1980).
Values after ≈ are worked out from the molar mass of the structure shown. Like-named read-outs stand apart in the source and are kept apart here.

What was measured:
[1] = test system: lymphocytic leukemia cells of the strain P388; test: P388 lymphocytic leukemia implanted in mice, survival time (T/C), National Cancer Institute Protocol 1.200; type: in vivo; conditions: intraperitoneal, once a day for 9 days, female DBA/2 mice, 125% or above considered active
Excerpt: The effectiveness of alkaloid compounds against lymphocytic leukemia cells of the strain P388 implanted in mice is another method of determining activity. These assays are made according to the National Cancer Institute Protocol 1.200 described in Geran et al. referred to above. The usefulness of cephalomannine as compared to taxol was ascertained by assaying Fractions K263 and K264 from Example 1 by this procedure. Starting 24 hr. after the tumor implantation, previously determined dosages of each compound were injected intraperitoneally once a day for 9 days. Survival time of treated leukemic mice is compared to that of untreated leukemic mice (T/C×100). A T/C value of 100% indicated no activity. A T/C value greater than 100% means that the treated mice are surviving longer than the control mice. A compound giving a T/C value greater than 125% is indicative of activity as defined by the NCI Protocols, above.
^1 All mice were female, DBA/2.
^2 The injection vehicle was saline + Tween 80 + alcohol.
^3 One intraperitoneal injection per day for 9 days.
^4 T/C = mean survival time of test animals/mean survival time of […]

KB cell culture = test: cells; type: cell-based; conditions: for IC50: Homo sapiens, KB, 72 h, read-out: ED 50 (dose that inhibits growth to 50% of control growth); for activity in KB cell culture (in words): assay of extract and of fractions during isolation
Experimental: The chemotherapeutic activities of the fractions obtained in the isolation procedure may be determined by a KB Cell Culture Screen in accordance with the National Cancer Institute Protocol 1.600 [Geran et al., Cancer Chemother. Rep., Part 3, 3: 17 (1972)]. […] Such a dose is referred to as ED 50 and activity is indicated for ED 50 levels of ≤30 μg./ml.

leukemia [2] = test: activity against leukemia in animals (general statement); conditions: in vivo
leukemia [3] = conditions: background, literature; cited from earlier work

Structure (SMILES)	T/C (mean survival time of test animals/mean survival time of control animals) ([1]; 1.00 mg./kg./inj.)	T/C (mean survival time of test animals/mean survival time of control animals) ([1]; 1.40 mg./kg./inj.)	T/C (mean survival time of test animals/mean survival time of control animals) ([1]; 2.20 mg./kg./inj.)	T/C (mean survival time of test animals/mean survival time of control animals) ([1]; 3.30 mg./kg./inj.)	IC50 (KB cell culture)	activity in KB cell culture (in words) (KB cell culture)	activity against leukemia in animals (in words) (leukemia [2])	IC50 (KB cell culture; 3 days after drug addition, active if ED 50 ≤30 μg./ml.)	antileukemic / antitumor / chemotherapeutic activity (in words) (leukemia [3])
CC=C(C)C(=O)NC(c1ccccc1)C(O)C(=O)O[C@H]1C[C@@]2(O)[C@@H](OC(=O)c3ccccc3)[C@@H]3[C@]4(OC(C)=O)CO[C@@H]4C[C@H](O)[C@@]3(C)C(=O)[C@H](OC(C)=O)C(=C1C)C2(C)C (single isomer, unassigned) [cephalomannine]	152%	159%	162%	180%	3.8 ng/mL (≈ 4.57 nM)	showed activity	demonstrates activity against leukemia in animals	–	–
CC(=O)O[C@H]1C(=O)[C@@]2(C)[C@H]([C@H](OC(=O)c3ccccc3)[C@]3(O)C[C@H](OC(=O)C(O)C(NC(=O)c4ccccc4)c4ccccc4)C(C)=C1C3(C)C)[C@]1(OC(C)=O)CO[C@@H]1C[C@@H]2O (single isomer, unassigned) [taxol, reference compound]	–	148%	152%	–	–	showed activity	–	1.2 ng/mL (≈ 1.41 nM)	antileukemic and antitumor agent
